According to patent US20030175216A1, “Oral antimicrobial and anti-odor compositions” (Innoscent LTD., priority 2001, published 2003):

What was measured:
C. albicans = test: Agar plate zone of growth inhibition; assay type: cell-based, Candida albicans
Method: (§1) The higher alcohols were tested for antimicrobial activity against Gram positive bacteria (Streptococcus mutans), Gram negative bacteria (Pseudomonas spp., Escherichia coli, […]) and the yeast Candida albicans. […] Five microliters of the higher alcohol solutions were placed on the surface of a rich (Brain-heart infusion) agar plate immediately after seeding with a mono-specific bacterial or yeast culture. The plates were incubated for 24-48 hours, and, following further microbial proliferation, the diameters of the zones of growth inhibition were measured (results expressed in centimeters).

M. lysodeikticus = test: Agar plate zone of growth inhibition; assay type: cell-based
Method: (§2) Five microliters of the higher alcohol solutions were placed on the surface of a rich (Brain-heart infusion) agar plate immediately after seeding with a mono-specific bacterial or yeast culture. The plates were incubated for 24-48 hours, and, following further microbial proliferation, the diameters of the zones of growth inhibition were measured (results expressed in centimeters). In a further set of experiments, the effect of solvent type on the antimicrobial activity of the C9 alcohol was investigated. […] These solutions were tested for antimicrobial activity towards three microorganisms (M. lysodeikticus, S. mutans and Corynebacterium xerosis) using the same assay as described above. The relationship of the concentration of the C9 alcohol to its antimicrobial activity was also investigated. […] These solutions were tested in the assay described above for their ability to inhibit the growth of the bacteria M. lysodeikticus and S. mutans.

S. mutans = test: Agar plate zone of growth inhibition; assay type: cell-based, Streptococcus mutans
Method: as §2, with “The higher alcohols were tested for antimicrobial activity against Gram positive bacteria (Streptococcus mutans), Gram negative bacteria (Pseudomonas spp., Escherichia coli, […]) and the yeast Candida albicans. […] Five” for “Five”

[1] = system: bacteria and yeast tested; test: Agar plate growth inhibition, summary statements over the test microorganisms; assay type: cell-based; details: for antimicrobial activity (summary): C. xerosis
Method: as §2, with “The higher alcohols were tested for antimicrobial activity against Gram positive bacteria (Streptococcus mutans), Gram negative bacteria (Pseudomonas spp., Escherichia coli, […]) and the yeast Candida albicans. […] Five” for “Five”

E. faecalis = test: Agar plate zone of growth inhibition; assay type: cell-based
Method: as §1

Pseudomonas aeruginosa = test: Agar plate zone of growth inhibition; assay type: cell-based
Method: as §1

[2] = system: odor formation in freshly-taken morning saliva; test: Inhibition of in vitro odor formation by higher alcohols (saliva in decarboxylase medium); assay type: cell-based
Method: A series of test tubes were prepared, each containing 5 ml of decarboxylase medium (0.5% peptone, 0.3% yeast extract, 0.1% dextrose and 0.02% bromocresol purple). […] The tubes were incubated at 37° C. for three days. Following incubation, the odor was determined by a panel of odor judges, using the following semi-quantitative scale 0=no odor 1=very slight odor […] The higher alcohols tested were alkanols of chain length C8, C9, C10, C11, C12, C14, C16 and C18.

E. coli = test: Agar plate zone of growth inhibition; assay type: cell-based, Escherichia coli
Method: as §1

C. xerosis = test: Agar plate zone of growth inhibition; assay type: cell-based, Corynebacterium xerosis
Method: Five microliters of the higher alcohol solutions were placed on the surface of a rich (Brain-heart infusion) agar plate immediately after seeding with a mono-specific bacterial or yeast culture. The plates were incubated for 24-48 hours, and, following further microbial proliferation, the diameters of the zones of growth inhibition were measured (results expressed in centimeters). In a further set of experiments, the effect of solvent type on the antimicrobial activity of the C9 alcohol was investigated. […] These solutions were tested for antimicrobial activity towards three microorganisms (M. lysodeikticus, S. mutans and Corynebacterium xerosis) using the same assay as described above.

[3] = 5 μl of 0.1% solution in 70% ethanol
[4] = 5 μl of 1% solution (C8-C12 in 70% ethanol, C14-C18 in 100% ethanol)
[5] = 0.3% C9 in 70% ethanol, concentration series
[6] = 0.5% C9 in 70% ethanol, concentration series
[7] = 1% C9 in 70% ethanol, concentration series
[8] = 1% in 70% ethanol, solvent study
[9] = 2% C9 in 70% ethanol, concentration series
[10] = 3% C9 in 70% ethanol, concentration series
[11] = 4% C9 in 70% ethanol, concentration series
[12] = 5% C9 in 70% ethanol, concentration series
[13] = 10% C9 in 70% ethanol, concentration series
[14] = 10 μl of 1% solution, scale 0-5
[15] = 20 μl of 1% solution, scale 0-5
[16] = 30 μl of 1% solution, scale 0-5
[17] = 40 μl of 1% solution, scale 0-5

## CCCCCCCCCO [C9, 1-nonanol]
C. albicans; [3]
  diameter of zone of growth inhibition, C. albicans: 0.8 centimeters
C. albicans; [4]
  diameter of zone of growth inhibition, C. albicans: 0.9 centimeters
M. lysodeikticus; 0.1% C9 in 70% ethanol, concentration series
  diameter of zone of growth inhibition, M. lysodeikticus: 0.7 centimeters
M. lysodeikticus; 0.2% C9 in 70% ethanol, concentration series
  diameter of zone of growth inhibition, M. lysodeikticus: 0.9 centimeters
M. lysodeikticus; [5]
  diameter of zone of growth inhibition, M. lysodeikticus: 0.7 centimeters
M. lysodeikticus; [6]
  diameter of zone of growth inhibition, M. lysodeikticus: 0.7 centimeters
M. lysodeikticus; 1% C9 in 2-propanol
  diameter of zone of growth inhibition, M. lysodeikticus: 1.3 centimeters
M. lysodeikticus; [7]
  diameter of zone of growth inhibition, M. lysodeikticus: 0.7 centimeters
M. lysodeikticus; 1% C9 in 100% methanol
  diameter of zone of growth inhibition, M. lysodeikticus: 0.9 centimeters
M. lysodeikticus; [8]
  diameter of zone of growth inhibition, M. lysodeikticus: 0.7 centimeters
M. lysodeikticus; [9]
  diameter of zone of growth inhibition, M. lysodeikticus: 0.9 centimeters
M. lysodeikticus; [10]
  diameter of zone of growth inhibition, M. lysodeikticus: 0.9 centimeters
M. lysodeikticus; [11]
  diameter of zone of growth inhibition, M. lysodeikticus: 0.9 centimeters
M. lysodeikticus; [12]
  diameter of zone of growth inhibition, M. lysodeikticus: 0.9 centimeters
M. lysodeikticus; [13]
  diameter of zone of growth inhibition, M. lysodeikticus: 0.9 centimeters
S. mutans; [5]
  diameter of zone of growth inhibition, S. mutans: 0.8 centimeters
S. mutans; [6]
  diameter of zone of growth inhibition, S. mutans: 0.9 centimeters
S. mutans; 1% C9 in 2-propanol
  diameter of zone of growth inhibition, S. mutans: 1.3 centimeters
S. mutans; [7]
  diameter of zone of growth inhibition, S. mutans: 0.7 centimeters
S. mutans; 1% C9 in 100% methanol
  diameter of zone of growth inhibition, S. mutans: 0.9 centimeters
S. mutans; [8]
  diameter of zone of growth inhibition, S. mutans: 0.8 centimeters
S. mutans; [9]
  diameter of zone of growth inhibition, S. mutans: 0.8 centimeters
S. mutans; [10]
  diameter of zone of growth inhibition, S. mutans: 0.9 centimeters
S. mutans; [11]
  diameter of zone of growth inhibition, S. mutans: 1.0 centimeters
S. mutans; [12]
  diameter of zone of growth inhibition, S. mutans: 0.9 centimeters
S. mutans; [3]
  diameter of zone of growth inhibition, S. mutans: 0.9 centimeters
S. mutans; [4]
  diameter of zone of growth inhibition, S. mutans: 0.9 centimeters
S. mutans; [13]
  diameter of zone of growth inhibition, S. mutans: 1.0 centimeters
[1]; 1% C9 dissolved in water, M. lysodeikticus, S. mutans
  antimicrobial activity (summary): almost devoid of activity
[1]; 1% C9 solutions made in the lower alcohols, M. lysodeikticus, S. mutans
  antimicrobial activity (summary): highly active
[1]; C9 0.1-0.2% in 70% ethanol, M. lysodeikticus, S. mutans
  share of the maximal antibacterial effect: more than 75 % of the maximal effect
[1]; Table VI microorganisms
  effect on microbial growth (summary): inhibit microbial growth
[1]; among the higher alcohols tested
  spectrum of activity: widest spectrum of activity
[1]; in 70% ethanol, range 0-10%, M. lysodeikticus, S. mutans
  C9 alcohol concentration giving the greatest antibacterial activity: ≥ 3%
E. faecalis; [3]
  diameter of zone of growth inhibition, E. faecalis: 0.7 centimeters
E. faecalis; [4]
  diameter of zone of growth inhibition, E. faecalis: 0.9 centimeters
Pseudomonas aeruginosa; 5 μl of 0.05% solution in 70% ethanol
  diameter of zone of growth inhibition, Pseudomonas aeruginosa: 0.7 centimeters
Pseudomonas aeruginosa; [3]
  diameter of zone of growth inhibition, Pseudomonas aeruginosa: 0.7 centimeters
Pseudomonas aeruginosa; [4]
  diameter of zone of growth inhibition, Pseudomonas aeruginosa: 0.6 centimeters
[2]; 10-50 μl of 1% solution
  effect on in vitro odor formation (summary): inhibition of odor formation
[2]; [14]
  Odor Score (Judge 1): 4
  Odor Score (Judge 2): 4
[2]; [15]
  Odor Score (Judge 1): 4
  Odor Score (Judge 2): 4
[2]; [16]
  Odor Score (Judge 1): 0
  Odor Score (Judge 2): 0
[2]; [17]
  Odor Score (Judge 1): 0
  Odor Score (Judge 2): 0
[2]; 50 μl of 1% solution (C8-C12 in 70% ethanol, C14-C18 in 100% ethanol) in 5 ml medium + 200 μl saliva, 3 days 37° C., scale 0 no odor to 5 extremely foul
  Odor Score (Judge 1): 0
[2]; 50 μl of 1% solution, scale 0-5
  Odor Score (Judge 2): 0
E. coli; [3]
  diameter of zone of growth inhibition, E. coli: 1.0 centimeters
E. coli; [4]
  diameter of zone of growth inhibition, E. coli: 1.0 centimeters
C. xerosis; 1% C9 in 2-propanol
  diameter of zone of growth inhibition, C. xerosis: 1.0 centimeters
C. xerosis; 1% C9 in 100% methanol
  diameter of zone of growth inhibition, C. xerosis: 0.4 centimeters
C. xerosis; [8]
  diameter of zone of growth inhibition, C. xerosis: 0.9 centimeters
